Columns and labels:
[1] = target: ErbB2 insYVMA (HER2-YVMA, SEQ ID NO: 2) (Homo sapiens, UniProt P04626, INS775YVMA/P1170A); experiment: biochemical; details: ErbB2 insYVMA enzyme assay; read-out: Assay 1 IC50
[2] = target: ErbB2 WT (Homo sapiens (Human), UniProt P04626); experiment: ErbB enzyme assay (CisBio HTRF KinEASE-TK), Assay 2; assay type: biochemical
Summary of the method: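 Readout is HTRF KinEASE-TK, using Sa-XL665 and cryptate antibody for 1 h at 22 °C, as percent of control between DMSO-only (100) and pre-quenched (0) reactions. The kinase reaction runs 30 min at 22 °C with 1 mM ATP and 250 nM biotinylated TK substrate, in HEPES pH 7.4 with MgCl2 and 2% DMSO.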

[3] = target: EGFR (Homo sapiens (Human), UniProt P00533); experiment: ErbB enzyme assay (CisBio HTRF KinEASE-TK), Assay 3; assay type: biochemical
EGFR, sequence (P00533 25-1210): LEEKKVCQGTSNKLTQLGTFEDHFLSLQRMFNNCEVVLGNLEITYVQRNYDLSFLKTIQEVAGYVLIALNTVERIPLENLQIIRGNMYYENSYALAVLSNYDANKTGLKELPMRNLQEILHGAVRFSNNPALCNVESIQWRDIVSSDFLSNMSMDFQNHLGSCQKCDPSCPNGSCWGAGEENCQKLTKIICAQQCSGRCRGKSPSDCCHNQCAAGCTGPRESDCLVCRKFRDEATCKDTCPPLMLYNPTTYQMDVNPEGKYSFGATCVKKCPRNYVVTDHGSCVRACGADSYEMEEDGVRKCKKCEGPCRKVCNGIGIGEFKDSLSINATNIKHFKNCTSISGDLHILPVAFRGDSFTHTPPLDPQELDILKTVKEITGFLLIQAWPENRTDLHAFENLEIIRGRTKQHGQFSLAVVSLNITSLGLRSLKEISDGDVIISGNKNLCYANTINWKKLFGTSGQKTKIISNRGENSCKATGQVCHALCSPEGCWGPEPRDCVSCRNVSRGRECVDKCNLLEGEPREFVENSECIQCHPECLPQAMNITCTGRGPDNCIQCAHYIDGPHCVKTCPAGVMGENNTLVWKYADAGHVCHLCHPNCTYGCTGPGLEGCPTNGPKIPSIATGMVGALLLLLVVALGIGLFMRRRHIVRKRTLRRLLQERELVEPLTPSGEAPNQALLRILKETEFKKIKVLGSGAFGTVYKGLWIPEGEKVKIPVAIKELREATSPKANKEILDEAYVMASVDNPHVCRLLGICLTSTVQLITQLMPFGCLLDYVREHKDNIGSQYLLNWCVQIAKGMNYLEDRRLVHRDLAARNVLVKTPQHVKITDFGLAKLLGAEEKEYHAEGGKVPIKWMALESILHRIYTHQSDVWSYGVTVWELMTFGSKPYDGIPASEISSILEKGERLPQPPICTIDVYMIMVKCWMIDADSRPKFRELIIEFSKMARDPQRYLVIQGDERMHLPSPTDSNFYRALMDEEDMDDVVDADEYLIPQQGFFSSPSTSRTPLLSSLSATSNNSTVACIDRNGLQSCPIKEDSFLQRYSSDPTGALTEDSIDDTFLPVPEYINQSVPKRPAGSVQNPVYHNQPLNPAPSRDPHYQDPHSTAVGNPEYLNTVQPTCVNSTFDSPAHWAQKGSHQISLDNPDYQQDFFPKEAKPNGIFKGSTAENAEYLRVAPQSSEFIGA
Summary of the method: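 Using a time-resolved FRET read-out, tyrosine phosphorylation of 250 nM biotin substrate at 1 mM ATP (pH 7.4, 10 mM MgCl2, 2% DMSO, 22 °C, 30 min) was quantified against DMSO and pre-quenched controls; IC50 taken at 50% of control.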

[4] = target: ErbB2 with Exon 20 YVMA insertion (HER2-YVMA) (Homo sapiens (Human), UniProt P04626, INS775YVMA); experiment: Cellular phosphorylation assay, constitutive ErbB2 phosphorylation (Y1196) in engineered NIH 3T3 cells, Assay 4; assay type: cell-based
ErbB2 with Exon 20 YVMA insertion (HER2-YVMA), sequence (P04626 other isoform, or with tags, fused parts or gaps ins YVMA behind 775): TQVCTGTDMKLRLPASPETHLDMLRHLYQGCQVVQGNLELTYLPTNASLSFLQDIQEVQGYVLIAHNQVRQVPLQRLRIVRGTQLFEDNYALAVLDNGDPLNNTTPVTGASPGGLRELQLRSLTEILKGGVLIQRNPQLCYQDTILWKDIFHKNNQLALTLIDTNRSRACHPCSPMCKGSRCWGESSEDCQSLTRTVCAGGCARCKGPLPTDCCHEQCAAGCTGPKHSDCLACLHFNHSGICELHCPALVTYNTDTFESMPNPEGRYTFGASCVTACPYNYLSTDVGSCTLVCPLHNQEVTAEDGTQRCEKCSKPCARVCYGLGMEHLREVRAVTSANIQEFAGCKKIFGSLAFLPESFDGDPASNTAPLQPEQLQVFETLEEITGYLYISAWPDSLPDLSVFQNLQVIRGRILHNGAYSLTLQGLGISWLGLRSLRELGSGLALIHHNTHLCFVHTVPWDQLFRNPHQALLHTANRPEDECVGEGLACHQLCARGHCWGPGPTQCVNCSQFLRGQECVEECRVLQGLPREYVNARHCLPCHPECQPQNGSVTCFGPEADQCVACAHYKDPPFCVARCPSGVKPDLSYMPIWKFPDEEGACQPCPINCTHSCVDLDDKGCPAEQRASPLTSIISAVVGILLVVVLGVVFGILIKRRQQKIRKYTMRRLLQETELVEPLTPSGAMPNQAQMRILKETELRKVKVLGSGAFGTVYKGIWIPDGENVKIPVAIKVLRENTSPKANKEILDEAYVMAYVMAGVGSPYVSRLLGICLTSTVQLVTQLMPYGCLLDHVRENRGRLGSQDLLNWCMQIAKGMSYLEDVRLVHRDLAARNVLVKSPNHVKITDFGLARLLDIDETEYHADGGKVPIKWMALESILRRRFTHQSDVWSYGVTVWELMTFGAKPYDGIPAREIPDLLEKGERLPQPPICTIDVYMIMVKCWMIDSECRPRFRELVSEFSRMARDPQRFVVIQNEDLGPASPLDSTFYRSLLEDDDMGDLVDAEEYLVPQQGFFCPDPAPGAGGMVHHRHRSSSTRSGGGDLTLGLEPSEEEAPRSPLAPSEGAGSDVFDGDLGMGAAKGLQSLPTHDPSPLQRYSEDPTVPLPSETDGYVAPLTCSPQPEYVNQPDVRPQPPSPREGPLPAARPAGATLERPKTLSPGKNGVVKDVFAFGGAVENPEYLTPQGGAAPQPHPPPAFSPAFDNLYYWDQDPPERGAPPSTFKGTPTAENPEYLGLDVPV
Summary of the method: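 In-cell Western in NIH 3T3 cells carrying ErbB2 exon 20 YVMA insertion, with no ligand stimulation. One hour compound exposure at 37 °C before fixation and anti-pY1196 plus GAPDH staining with dual-wavelength fluorescence. IC50 derived after GAPDH normalization.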

[5] = target: EGFR wild type (EGFR WT) (Homo sapiens (Human), UniProt P00533); experiment: Cellular phosphorylation assay, EGF-stimulated EGFR phosphorylation in engineered NIH 3T3 cells, Phospho-EGFR DuoSet IC ELISA, Assay 5; assay type: cell-based
Summary of the method: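 Phospho-EGFR ELISA on lysates of engineered NIH 3T3 EGFR WT cells, IC50 derived from concentration curves. Cells plated at 20,000/well overnight, given compound dilutions 1 h at 37 °C, then rEGF 100 ng/ml for a further 10 min before lysis.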

[6] = target: MDR1 (P-gp) (Homo sapiens (Human), UniProt P08183); experiment: MDR1 transfected LLC-PK1 permeability/efflux, Assay 6; details: pig, LLC-PK1, Assay 6 Pe Ratio, efflux ratio Papp(B-A)/Papp(A-B), MDR1 transfected LLC-PK1
MDR1 (P-gp), sequence (P08183 whole entry): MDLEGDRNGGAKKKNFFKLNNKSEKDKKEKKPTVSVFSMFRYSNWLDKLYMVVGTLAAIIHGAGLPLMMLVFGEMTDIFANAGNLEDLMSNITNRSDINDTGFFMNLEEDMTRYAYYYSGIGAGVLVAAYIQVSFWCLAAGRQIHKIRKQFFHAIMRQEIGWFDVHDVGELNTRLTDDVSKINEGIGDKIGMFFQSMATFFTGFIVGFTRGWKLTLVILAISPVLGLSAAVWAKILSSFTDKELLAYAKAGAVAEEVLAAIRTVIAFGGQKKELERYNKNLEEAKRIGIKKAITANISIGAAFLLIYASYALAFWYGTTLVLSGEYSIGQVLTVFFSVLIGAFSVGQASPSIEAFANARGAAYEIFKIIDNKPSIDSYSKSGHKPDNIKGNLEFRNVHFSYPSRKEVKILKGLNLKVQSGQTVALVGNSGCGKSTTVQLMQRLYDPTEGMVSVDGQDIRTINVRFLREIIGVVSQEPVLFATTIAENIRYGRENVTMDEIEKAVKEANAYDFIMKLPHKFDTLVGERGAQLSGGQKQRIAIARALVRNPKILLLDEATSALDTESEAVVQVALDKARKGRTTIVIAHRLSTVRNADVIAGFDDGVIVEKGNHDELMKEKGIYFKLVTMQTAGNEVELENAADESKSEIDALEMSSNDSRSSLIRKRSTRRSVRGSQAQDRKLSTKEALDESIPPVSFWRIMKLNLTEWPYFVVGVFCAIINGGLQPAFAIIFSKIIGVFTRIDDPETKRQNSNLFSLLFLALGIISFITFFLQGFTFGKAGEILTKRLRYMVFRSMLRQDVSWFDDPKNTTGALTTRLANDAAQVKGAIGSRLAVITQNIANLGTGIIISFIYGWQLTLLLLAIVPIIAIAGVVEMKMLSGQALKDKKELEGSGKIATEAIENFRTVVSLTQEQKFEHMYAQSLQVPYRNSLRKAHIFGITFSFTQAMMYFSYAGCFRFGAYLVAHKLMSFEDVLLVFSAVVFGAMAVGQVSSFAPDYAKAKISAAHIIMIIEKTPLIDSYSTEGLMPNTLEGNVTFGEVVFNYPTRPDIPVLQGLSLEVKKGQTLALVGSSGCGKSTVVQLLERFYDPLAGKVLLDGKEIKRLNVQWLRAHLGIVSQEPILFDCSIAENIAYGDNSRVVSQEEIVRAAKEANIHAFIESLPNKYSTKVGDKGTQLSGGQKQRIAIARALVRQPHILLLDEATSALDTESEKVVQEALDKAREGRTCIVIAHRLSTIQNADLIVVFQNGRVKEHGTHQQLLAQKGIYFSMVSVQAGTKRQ
Description: Both MDR1 transfected LLC-PK1 (Assay 6) and MDR1 transfected MDCKII canine Mdr1 knockout cells (Assay 7) were cultured and plated according to manufacturer's recommendations with the exception that the passage media for the MDR1 transfected LLC-PK1 cell line contained only 2% fetal bovine serum so as to extend passage time out to seven days.
Both positive and negative controls were used to assess functionality of P-gp or BCRP efflux in the assays. Stock solutions for assay controls and the test article were prepared in DMSO for final test concentration of 1 μM. Final organic concentration in the assay was 1%. All dosing solutions contained 10 μM lucifer yellow to monitor MDCKII cell monolayer integrity.
For the apical to basolateral determination (A to B), 75 μL of the test article in transport buffer were added to the apical side of the individual transwells and 250 μL of basolateral media, without compound or lucifer yellow, were added to each well. For the basolateral to apical determination (B to A), 250 μL of test article in transport buffer were added to each well and 75 μL transport buffer, without compound or lucifer yellow, were added to each transwell. All tests were performed in triplicate, and each compound was tested for both apical to basolateral and basolateral to apical transport. The plates were incubated for 2 hours on a Lab-Line Instruments Titer Orbital Shaker (VWR, West Chester, PA) at 50 rpm and 37° C. with 5% CO2. All culture plates were removed from the incubator, 50 μL of media were removed from the apical and basolateral portion of each well, and added to 150 μL of 1 μM labetalol in 2:1 acetonitrile (ACN): H2O, v/v.
The plates were read using a Molecular Devices (Sunnyvale, CA) Gemini Fluorometer to evaluate the lucifer yellow concentrations at excitation/emission wavelengths of 425/535 nm. These values were accepted when found to be below 2% for apical to basolateral and 5% basolateral to apical flux across the MDR1-transfected LLC-PK1 or BCRP-transfected MDCKII cell monolayers. The plates were sealed, and the contents of each well analyzed by LC MS/MS. The compound concentrations were determined from the ratio of the peak areas of the compound to the internal standard (labetalol) in comparison to the dosing solution.
A MDS Sciex API 4000 (Applied Biosystems, Foster City, CA) mass spectrometer was used for detection of the analytes in the ion spray positive mode. Analyte responses were measured by multiple reaction monitoring (“MRM”) of transitions unique to each compound (the protonated precursor ion and selected product ions for each test article and m/z 329 to m/z 162 for labetalol, the internal standard.
The total run time, including re-equilibration, for a single injection was 1.2 minutes. […] The total run time, including re-equilibration, for a single injection was 0.61 minutes.
An efflux ratio is calculated from the mean apical to basolateral (A-B) Papp data and basolateral to apical (B-A) Papp data: Efflux ratio=Papp(B−A)/Papp(A−B)

[7] = target: BCRP (Homo sapiens (Human), UniProt Q9UNQ0); experiment: BCRP transfected MDCKII canine Mdr1 knockout permeability/efflux, Assay 9; details: dog, Assay 9 Pe Ratio, efflux ratio Papp(B-A)/Papp(A-B), BCRP transfected MDCKII canine Mdr1 knockout

ErbB2 WT, sequence (P04626 23-1255): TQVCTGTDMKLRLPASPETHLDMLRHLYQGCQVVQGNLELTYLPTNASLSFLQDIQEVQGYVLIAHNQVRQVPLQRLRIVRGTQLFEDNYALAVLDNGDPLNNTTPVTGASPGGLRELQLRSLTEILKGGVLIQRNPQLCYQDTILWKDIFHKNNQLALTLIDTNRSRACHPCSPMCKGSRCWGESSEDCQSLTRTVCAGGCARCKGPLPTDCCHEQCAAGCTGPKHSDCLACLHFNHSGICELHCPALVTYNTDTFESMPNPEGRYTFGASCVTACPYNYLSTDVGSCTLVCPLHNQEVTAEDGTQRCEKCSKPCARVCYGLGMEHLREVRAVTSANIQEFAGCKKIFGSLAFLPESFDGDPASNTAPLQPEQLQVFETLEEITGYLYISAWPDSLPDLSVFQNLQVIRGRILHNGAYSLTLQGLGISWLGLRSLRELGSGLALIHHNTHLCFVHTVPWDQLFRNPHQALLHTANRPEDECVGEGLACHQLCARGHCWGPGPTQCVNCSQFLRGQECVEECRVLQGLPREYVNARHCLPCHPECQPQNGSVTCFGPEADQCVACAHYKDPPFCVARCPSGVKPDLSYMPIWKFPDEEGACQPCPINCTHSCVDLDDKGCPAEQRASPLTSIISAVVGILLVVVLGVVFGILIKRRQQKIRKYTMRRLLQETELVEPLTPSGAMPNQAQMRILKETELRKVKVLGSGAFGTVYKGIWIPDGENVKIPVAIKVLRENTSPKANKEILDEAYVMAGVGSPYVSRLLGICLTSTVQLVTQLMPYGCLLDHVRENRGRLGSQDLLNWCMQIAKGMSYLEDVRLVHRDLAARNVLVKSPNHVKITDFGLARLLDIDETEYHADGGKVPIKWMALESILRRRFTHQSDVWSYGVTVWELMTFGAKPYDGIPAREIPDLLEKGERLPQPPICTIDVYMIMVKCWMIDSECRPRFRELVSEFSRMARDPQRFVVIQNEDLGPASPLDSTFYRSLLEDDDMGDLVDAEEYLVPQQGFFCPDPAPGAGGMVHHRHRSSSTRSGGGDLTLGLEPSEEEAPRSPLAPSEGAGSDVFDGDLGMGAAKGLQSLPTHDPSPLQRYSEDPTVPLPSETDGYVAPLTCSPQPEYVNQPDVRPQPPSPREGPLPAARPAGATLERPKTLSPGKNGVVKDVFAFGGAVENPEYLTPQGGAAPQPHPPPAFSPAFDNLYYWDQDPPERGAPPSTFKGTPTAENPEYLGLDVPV

Compound | IC50 [1] [nM] | IC50 [2] [nM] | IC50 [3] [nM] | IC50 [4] [nM] | IC50 [5] [nM] | efflux ratio at 2 h, 1 μM [6] | efflux ratio at 2 h, 1 μM [7]
Cc1cc(Nc2ncnc3cnc(N4CC5C(C4)C5(F)F)nc23)ccc1Oc1ccc2c(c1)ncn2C (stereo not shown) [Example 234] | 104 | 165 | ≥ 10000 | 39.1 | ≥ 5000 | 1.8 | 5.2
Cc1cc(Nc2ncnc3cnc(N4CCO[C@@H]5C[C@@H]54)nc23)ccc1Oc1ccc2c(c1)ncn2C [Example 199, 6-((1R,6S)-2-oxa-5-azabicyclo[4.1.0]heptan-5-yl)-N-(3-methyl-4-((1-methyl-1H-benzo[d]imidazol-5-yl)oxy)phenyl)pyrimido[5,4-d]pyrimidin-4-amine] | 16.1 | – | 5680 | 17.9 | ≥ 5000 | 1.9 | 1.4
Cc1cc(Nc2ncnc3cnc(N4CC5C6CCC(O6)C5C4)nc23)ccc1Oc1ccc2c(c1)ncn2C (stereo not shown) [Example 16, N-(3-methyl-4-((1-methyl-1H-benzo[d]imidazol-5-yl)oxy)phenyl)-6-(octahydro-2H-4,7-epoxyisoindol-2-yl)pyrimido[5,4-d]pyrimidin-4-amine] | 26 | – | ≥ 10000 | 15.2 | ≥ 5000 | 1.2 | 1.8
Cc1cc(Nc2ncnc3cnc(N4CC(C(C)(C)O)C4)nc23)ccc1Oc1ccc2c(c1)ncn2C [Example 118, 2-(1-(8-((3-methyl-4-((1-methyl-1H-benzo[d]imidazol-5-yl)oxy)phenyl)amino)pyrimido[5,4-d]pyrimidin-2-yl)azetidin-3-yl)propan-2-ol] | 54.2 | 88.7 | ≥ 10000 | 39.8 | ≥ 5000 | 7.4 | –
Cc1cc(Nc2ncnc3cnc(N)nc23)ccc1Oc1ccc2c(c1)ncn2C [Example 206, N8-(3-methyl-4-((1-methyl-1H-benzo[d]imidazol-5-yl)oxy)phenyl)pyrimido[5,4-d]pyrimidine-2,8-diamine bis(2,2,2-trifluoroacetate)] | 12.6 | 40.8 | ≥ 10000 | 24.8 | ≥ 5000 | 3.3 | –
CNc1ncc2ncnc(Nc3ccc(Oc4ccc5scnc5c4)c(C)c3)c2n1 [Example 50, N8-(4-(benzo[d]thiazol-5-yloxy)-3-methylphenyl)-N2-methylpyrimido[5,4-d]pyrimidine-2,8-diamine 2,2,2-trifluoroacetate] | 4.8 | 11.4 | 363 | 93.6 | ≥ 5000 | 1.2 | –
Cc1cc(Nc2ncnc3cnc(N4CC[C@H](C(C)(C)O)C4)nc23)ccc1Oc1ccc2c(c1)ncn2C [Example 126, (S)-2-(1-(8-((3-methyl-4-((1-methyl-1H-benzo[d]imidazol-5-yl)oxy)phenyl)amino)pyrimido[5,4-d]pyrimidin-2-yl)pyrrolidin-3-yl)propan-2-ol] | 15.5 | 18.3 | ≥ 10000 | 14.3 | ≥ 5000 | 3.8 | –
Cc1cc(Nc2ncnc3cnc(O[C@H]4CCNC[C@H]4F)nc23)ccc1Oc1ccc2c(c1)ncn2C [Example 284] | 75.6 | 681 | ≥ 10000 | 53.4 | ≥ 5000 | 95.4 | –
Cc1cc(Nc2ncnc3cnc(N4C[C@@H](C)O[C@@H](C)C4)nc23)ccc1Oc1ccc2c(c1)ncn2C [Example 25, 6-((2S,6R)-2,6-dimethylmorpholino)-N-(3-methyl-4-((1-methyl-1H-benzo[d]imidazol-5-yl)oxy)phenyl)pyrimido[5,4-d]pyrimidin-4-amine] | 172 | 329 | ≥ 10000 | 53.4 | – | 1.7 | 1.4
Cc1cc(Nc2ncnc3cnc(-c4ncco4)nc23)ccc1Oc1ccc2c(c1)ncn2C [Example 226] | 92.7 | 128 | ≥ 10000 | 65.4 | ≥ 5000 | 3.2 | –

Source: patent US11834453B2, “Substituted pyrimido[5,4-d]pyrimidines as HER2 inhibitors” (Array BioPharma Inc., priority 2020, dated 2023)
